ChEMBL document CHEMBL1201862, “PubChem BioAssay data set” (2004)
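Following 48 hours of exposure in 96-well plates, responses at five concentrations were used to interpolate endpoints linearly. GI50 = concentration required for 50% inhibition of growth.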 The source made the active and inactive calls. Cut-off read from the data, not from the text of the source: active = GI50 up to about 1.1 µM and inactive = higher.

Legend:
Test in all cases: NCI anticancer screen, dose series, 48 h
EKVX = system: EKVX
COLO 205 = system: COLO 205
MOLT-4 = system: MOLT-4
SK-OV-3 = system: SK-OV-3
HOP-62 = system: HOP-62
SK-MEL-2 = system: SK-MEL-2
UACC-257 = system: UACC-257
A549 = system: A549
SK-MEL-28 = system: SK-MEL-28
OVCAR-8 = system: OVCAR-8
OVCAR-4 = system: OVCAR-4
BT-549 = system: BT-549
CCRF-CEM = system: CCRF-CEM
RPMI-8226 = system: RPMI-8226
MDA-N = system: MDA-N
HCT-116 = system: HCT-116
SF-268 = system: SF-268
HL-60 = system: HL-60
SR = system: SR

COC(=O)C(NC(=O)C(CC(=O)OC(C)(C)C)NC(=O)OC(C)(C)C)C(O)c1ccccc1 (stereo unspecified)
GI50 (EKVX): > 100 µM (inactive) | GI50 (COLO 205): > 100 µM (inactive) | GI50 (MOLT-4): > 100 µM (inactive) | GI50 (SK-OV-3): 16.1 µM (inactive) | GI50 (HOP-62): > 100 µM (inactive) | GI50 (SK-MEL-2): > 100 µM (inactive) | GI50 (UACC-257): 74.5 µM (inactive) | GI50 (A549): > 100 µM (inactive) | GI50 (SK-MEL-28): > 100 µM (inactive) | GI50 (OVCAR-8): > 100 µM (inactive) | GI50 (OVCAR-4): > 100 µM (inactive) | GI50 (BT-549): > 100 µM (inactive) | GI50 (CCRF-CEM): > 100 µM (inactive) | GI50 (RPMI-8226): > 100 µM (inactive) | GI50 (MDA-N): > 100 µM (inactive) | GI50 (HCT-116): > 100 µM (inactive) | GI50 (SF-268): > 100 µM (inactive)

O=C1NC(=O)/C(=C\c2ccncc2)N1
GI50 (EKVX): > 100 µM (inactive) | GI50 (COLO 205): > 100 µM (inactive) | GI50 (MOLT-4): > 100 µM (inactive) | GI50 (SK-OV-3): > 100 µM (inactive) | GI50 (HOP-62): > 100 µM (inactive) | GI50 (SK-MEL-2): > 100 µM (inactive) | GI50 (UACC-257): > 100 µM (inactive) | GI50 (A549): > 100 µM (inactive) | GI50 (SK-MEL-28): > 100 µM (inactive) | GI50 (OVCAR-8): > 100 µM (inactive) | GI50 (OVCAR-4): > 100 µM (inactive) | GI50 (BT-549): > 100 µM (inactive) | GI50 (HL-60): > 10 µM (inactive) | GI50 (MDA-N): > 100 µM (inactive) | GI50 (HCT-116): > 100 µM (inactive)

O=C(CC(=O)N1N=C(N(c2ccccc2)c2ccccc2)CC1c1ccccc1)Nc1ccccc1 (stereo unspecified)
GI50 (SR): 37.7 µM (inactive) | GI50 (EKVX): > 100 µM (inactive) | GI50 (COLO 205): > 100 µM (inactive) | GI50 (MOLT-4): 7.31 µM (inactive) | GI50 (SK-OV-3): 80.9 µM (inactive) | GI50 (HOP-62): 48.5 µM (inactive) | GI50 (SK-MEL-2): > 100 µM (inactive) | GI50 (UACC-257): > 100 µM (inactive) | GI50 (A549): > 100 µM (inactive) | GI50 (SK-MEL-28): > 100 µM (inactive) | GI50 (OVCAR-8): > 100 µM (inactive) | GI50 (OVCAR-4): > 100 µM (inactive) | GI50 (BT-549): > 100 µM (inactive) | GI50 (CCRF-CEM): > 100 µM (inactive) | GI50 (HL-60): > 100 µM (inactive) | GI50 (RPMI-8226): > 100 µM (inactive) | GI50 (HCT-116): > 100 µM (inactive) | GI50 (SF-268): 40.8 µM (inactive)

C=CCN(c1cc(O)c2c(c(C)cn2S(=O)(=O)c2ccccc2)c1[N+](=O)[O-])S(C)(=O)=O
GI50 (EKVX): 76.9 µM (inactive) | GI50 (COLO 205): > 100 µM (inactive) | GI50 (MOLT-4): 42.4 µM (inactive) | GI50 (SK-OV-3): > 100 µM (inactive) | GI50 (HOP-62): > 100 µM (inactive) | GI50 (SK-MEL-2): > 100 µM (inactive) | GI50 (UACC-257): > 100 µM (inactive) | GI50 (A549): 56.5 µM (inactive) | GI50 (SK-MEL-28): > 100 µM (inactive) | GI50 (OVCAR-8): > 100 µM (inactive) | GI50 (OVCAR-4): > 100 µM (inactive) | GI50 (BT-549): > 100 µM (inactive) | GI50 (CCRF-CEM): > 100 µM (inactive) | GI50 (HL-60): > 100 µM (inactive) | GI50 (RPMI-8226): 61.2 µM (inactive) | GI50 (MDA-N): 36.9 µM (inactive) | GI50 (HCT-116): 59.2 µM (inactive) | GI50 (SF-268): > 100 µM (inactive)

Nc1cnc2c(c1)c(=O)nc1n2CCS1
GI50 (EKVX): 39.3 µM (inactive) | GI50 (COLO 205): > 100 µM (inactive) | GI50 (MOLT-4): > 100 µM (inactive) | GI50 (SK-OV-3): > 100 µM (inactive) | GI50 (HOP-62): > 100 µM (inactive) | GI50 (SK-MEL-2): > 100 µM (inactive) | GI50 (UACC-257): > 100 µM (inactive) | GI50 (A549): > 100 µM (inactive) | GI50 (SK-MEL-28): > 100 µM (inactive) | GI50 (OVCAR-8): > 100 µM (inactive) | GI50 (OVCAR-4): > 100 µM (inactive) | GI50 (BT-549): > 100 µM (inactive) | GI50 (CCRF-CEM): 77.6 µM (inactive) | GI50 (HL-60): > 100 µM (inactive) | GI50 (RPMI-8226): 74 µM (inactive) | GI50 (MDA-N): > 100 µM (inactive) | GI50 (HCT-116): > 100 µM (inactive) | GI50 (SF-268): > 100 µM (inactive)

Nc1ccccc1-n1c2c(c3ccccc3c1=O)C(=O)c1ccccc1-2
GI50 (EKVX): 27.6 µM (inactive) | GI50 (COLO 205): 26.1 µM (inactive) | GI50 (MOLT-4): 4.25 µM (inactive) | GI50 (SK-OV-3): 6.98 µM (inactive) | GI50 (HOP-62): 7.14 µM (inactive) | GI50 (SK-MEL-2): 19.9 µM (inactive) | GI50 (UACC-257): 35.9 µM (inactive) | GI50 (A549): 11.5 µM (inactive) | GI50 (SK-MEL-28): 36.5 µM (inactive) | GI50 (OVCAR-8): 14.5 µM (inactive) | GI50 (OVCAR-4): 4.11 µM (inactive) | GI50 (BT-549): 0.857 µM (active) | GI50 (CCRF-CEM): 48.9 µM (inactive) | GI50 (HL-60): 0.046 µM (active) | GI50 (RPMI-8226): 60.1 µM (inactive) | GI50 (HCT-116): 20.8 µM (inactive) | GI50 (SF-268): 8.24 µM (inactive)

CC(C)OC(=O)[C@H]1ON2O[C@H](O[C@@H]3CCCC[C@H]3c3ccccc3)C([Si](C)(C)c3ccccc3)[C@H]3OC(=O)[C@@H]1C32 (stereo partly specified)
GI50 (SR): 21.2 µM (inactive) | GI50 (EKVX): > 100 µM (inactive) | GI50 (COLO 205): > 100 µM (inactive) | GI50 (MOLT-4): 18.7 µM (inactive) | GI50 (SK-OV-3): > 100 µM (inactive) | GI50 (HOP-62): > 100 µM (inactive) | GI50 (SK-MEL-2): > 100 µM (inactive) | GI50 (UACC-257): > 100 µM (inactive) | GI50 (A549): > 100 µM (inactive) | GI50 (SK-MEL-28): > 100 µM (inactive) | GI50 (OVCAR-8): > 100 µM (inactive) | GI50 (BT-549): > 100 µM (inactive) | GI50 (CCRF-CEM): 94 µM (inactive) | GI50 (HL-60): > 100 µM (inactive) | GI50 (RPMI-8226): > 100 µM (inactive) | GI50 (HCT-116): > 100 µM (inactive) | GI50 (SF-268): > 100 µM (inactive)

CSc1s[s+]c(SC)c1-c1ccccc1
GI50 (EKVX): 14.8 µM (inactive) | GI50 (COLO 205): 18.4 µM (inactive) | GI50 (MOLT-4): 46.1 µM (inactive) | GI50 (SK-OV-3): 15.9 µM (inactive) | GI50 (HOP-62): 14.6 µM (inactive) | GI50 (UACC-257): 14.4 µM (inactive) | GI50 (A549): 28.1 µM (inactive) | GI50 (OVCAR-8): 15.7 µM (inactive) | GI50 (OVCAR-4): 0.329 µM (active) | GI50 (BT-549): 13.9 µM (inactive) | GI50 (CCRF-CEM): 25.2 µM (inactive) | GI50 (HL-60): 28.9 µM (inactive) | GI50 (RPMI-8226): 19.8 µM (inactive) | GI50 (MDA-N): 16.7 µM (inactive) | GI50 (HCT-116): 15.4 µM (inactive) | GI50 (SF-268): 18.2 µM (inactive)
